The results in this text go back to a melting point compilation (Tetko et al.).

The term melting point denotes the temperature, or range, at which the solid turns liquid.

Take `Brc1ccc(-n2cnnn2)cc1`: the melting point was 180 to 182 °C.

On to `COCCNc1nnnn1C`, for which the melting point lay within 59 to 61 °C.

`CC1(C)CNc2ccccc2S1`: the melting point lay in the range of 41 to 43 °C.

Molecule `c1nc(N2CCNCC2)c2sccc2n1` gave a melting point of 98 to 100 °C.

For `CC(C)(C)OC(=O)NCCC1CNc2ccccc21` (stereo not drawn), the melting point lay in the range of 90 to 92 °C.

Consider `Fc1ccc2nc(S)n(-c3ccccc3F)c2c1`, for which the melting point fell in the range of 220 to 222 °C.

In the case of `O=C1CC2(CCCC2)CN1`, the melting point fell in the range of 68 to 70 °C.

With `CC1CNC(=O)CC(C)C1` (stereo not drawn), the melting point fell in the range of 122 to 124 °C.

`COC(=O)c1c(NC(=O)OC(C)(C)C)c[nH]c1C` had a melting point of 109 to 111 °C.

Molecule `CCNC(=O)CCC(=O)O` had a melting point of 84 to 86 °C.

As for `CC1CCC(C(C)C)C(OC(=O)CO)C1` (stereo not drawn), the melting point lay within 85 to 87 °C.

The molecule `C#CCOc1cccc(S(C)(=O)=O)c1` came in with a melting point of 89 to 91 °C.

Take `Cc1nc(C)c2c(C)c(C(=O)O)sc2n1`: the melting point was 347 to 349 °C.

In the case of `CCN(CC)S(=O)(=O)c1ccc(C=CC(=O)O)cc1`, the melting point lay within 184 to 186 °C.

The molecule `O=C(O)c1oc2ccccc2c1CSc1ccc(Cl)cc1` registered a melting point of 158 to 160 °C.

`CC(C)(C)NC(=O)Cc1ccc(N)cc1` showed a melting point of 113 to 115 °C.

Take `NC(=S)Nc1ccccc1Oc1ccccc1`: the melting point lay within 125 to 127 °C.

As to `COc1cccc(CNC(N)=O)c1`, the melting point is 111 to 113 °C.

On to `Nc1ccc(-c2csnn2)cc1`, for which the melting point was in the range of 125 to 127 °C.

The molecule `Cc1ccc(S(=O)(=O)N2Cc3ccccc3CC2C(=O)O)cc1` (stereo not drawn) registered a melting point of 143 to 145 °C.

As to `CC(Cn1ccnc1)NC(=O)C1(N)CCCC1` (stereo not drawn), the melting point lay in the range of 239 to 241 °C.

As to `Nc1ccc(N2CCCC2=O)cn1`, the melting point fell in the range of 165 to 167 °C.

In turn, `Cc1cc(C)c2nc(NN)cc(C)c2c1` registered a melting point of 113 to 115 °C.

In the case of `O=C(Nc1ccc(-c2ccccc2)cc1)OCC(F)(F)F`, the melting point was 168 to 170 °C.

The molecule `O=C(O)C=Cc1ccc(Br)o1` showed a melting point of 125 to 135 °C.

Molecule `SCc1c(Cl)cccc1Cl` showed a melting point of 44 to 46 °C.

With `Nc1nnc(CCc2ccccc2)c(=O)n1N`, the melting point lay within 243 to 245 °C.

`Cn1c(Cl)nnc1-c1ccc(Cl)cc1Cl` registered a melting point of 161 to 163 °C.

Turning to `O=c1[nH]ccnc1Cl`, the melting point fell in the range of 159 to 161 °C.

For `O=C(O)CCC(=O)N1CCC(O)CC1`, the melting point was in the range of 121 to 123 °C.

`Cc1nc(C)c(-c2csc(N)n2)s1`: the melting point was 125 to 127 °C.

On to `O=C(O)c1ncncc1Cl`, for which the melting point lay in the range of 153 to 155 °C.

Consider `c1n[nH]cc1C1CCCNC1` (stereo not drawn), for which the melting point is 71 to 73 °C.

As to `CN(C)C=C(Br)C=O`, the melting point was 48 to 50 °C.

`COc1cccc2sc(NC(=O)OCC(F)(F)F)nc12` returned a melting point of 133 to 135 °C.

Regarding `Cc1ccnc(-n2cc(S(=O)(=O)Cl)cn2)c1`, the melting point fell in the range of 104 to 106 °C.

Molecule `Cc1cccc(Cn2[nH]ccc2=NC(=O)CCl)c1` came in with a melting point of 88 to 90 °C.

`O=S(=O)(Cl)c1csc(-c2ccc(F)cc2)n1` gave a melting point of 75 to 77 °C.

As for `Cc1n[nH]c(C)c1S(=O)(=O)Cl`, the melting point lay in the range of 60 to 65 °C.

In turn, `COc1cc(C#N)ccc1CBr` had a melting point of 89 to 91 °C.

`CC(NC(=O)CCn1cncn1)C(=O)O` (stereo not drawn) showed a melting point of 254 to 256 °C.

`CC(C)CNC(=O)c1cc(N)ccc1Cl` showed a melting point of 109 to 111 °C.

Regarding `Cc1ccc(N2CC(C(=O)O)CCC2=O)cc1C` (stereo not drawn), the melting point was 184 to 186 °C.

In the case of `Cc1ccc(S(=O)(=O)Nc2ccc(Cl)cc2)cc1N`, the melting point lay within 104 to 106 °C.

`CN(C)C(=O)c1cccc(C(=O)O)c1` returned a melting point of 134 to 136 °C.

For the molecule `COC(=O)CCCOc1ccccc1F`, the melting point lay in the range of 29 to 31 °C.

Turning to `Cc1nc2ccc(Cl)cc2cc1C(=O)O`, the melting point is 218 to 220 °C.

For the molecule `O=C(O)CCSc1ccccc1Br`, the melting point was 104 to 106 °C.

Turning to `COc1cc2c(cc1C(=O)CCl)C(=O)CO2`, the melting point lay within 176 to 178 °C.

The molecule `Nc1ccc(CN2C(=O)CCC2=O)cc1` yielded a melting point of 141 to 143 °C.

`O=C(O)c1coc(-c2ccccc2Cl)n1` displayed a melting point of 179 to 181 °C.

In turn, `NC(=NO)c1ccc(-c2ccccc2)cc1` yielded a melting point of 182 to 184 °C.

For `COC(=O)c1cc(OC)c(S(=O)(=O)O)s1`, the melting point was 109 to 111 °C.

In turn, `COC(=O)CC(NC(=S)NC12CC3CC(CC(C3)C1)C2)C(=O)OC` (stereo not drawn) yielded a melting point of 117 to 119 °C.

The molecule `O=C(O)CNS(=O)(=O)c1ccc2c(c1)OCCCO2` came in with a melting point of 75 to 77 °C.

As to `Cc1ccc(NC(N)=O)cc1F`, the melting point was in the range of 190 to 192 °C.

As for `[N-]=[N+]=Nc1ccc(Cl)cc1C(F)(F)F`, the melting point was 32 to 34 °C.

Regarding `O=C(O)c1c[nH]nc1-c1ccncc1`, the melting point is 334 to 336 °C.

The molecule `CN1CCN(C(=O)C2CNc3ccccc3O2)CC1` (stereo not drawn) returned a melting point of 132 to 134 °C.

In turn, `CC(=O)c1ccc(N2CCCS2(=O)=O)cc1` showed a melting point of 137 to 139 °C.

With `Nc1ccc2nc(N3CCOCC3)oc2c1`, the melting point was 176 to 178 °C.

For `O=c1[nH]c2c(Br)cccc2c(=O)o1`, the melting point fell in the range of 169 to 171 °C.

For the molecule `CCOc1ccc(S(=O)(=O)Cl)cn1`, the melting point lay within 47 to 49 °C.

`Nc1ccc(CN2CCCC2=O)cc1` displayed a melting point of 124 to 126 °C.

`CC(C)S(=O)(=O)Nc1cccc(O)c1` came in with a melting point of 123 to 125 °C.

For the molecule `CCOC(=O)/C(C#N)=C\Nc1ccccc1CC`, the melting point is 124 to 126 °C.

Take `O=S(=O)(Cl)c1ccc(OCCBr)cc1`: the melting point lay in the range of 59 to 61 °C.

Turning to `C=CS(=O)(=O)c1cccc(Br)c1`, the melting point is 50 to 52 °C.

Consider `O=C(O)C1CCCN1C(=O)c1ccc2[nH]nnc2c1` (stereo not drawn), for which the melting point fell in the range of 223 to 225 °C.

`Cc1cc(Br)c2c(c1)C(=O)C(=O)N2` came in with a melting point of 178 to 180 °C.

In the case of `Cc1ccn2c(N)nnc2c1`, the melting point lay within 287 to 289 °C.

`O=C(O)CCN1C(=O)CSc2ccccc21` had a melting point of 144 to 146 °C.

Turning to `CC(C)(O)CN1CCNCC1`, the melting point fell in the range of 61 to 63 °C.

On to `O=C(NC1CCNCC1)C1CCOCC1`, for which the melting point lay within 156 to 158 °C.

`Nc1cc(-c2ccc(Br)cc2)ncn1`: the melting point fell in the range of 251 to 253 °C.

Molecule `CNS(N)(=O)=O` had a melting point of 49 to 51 °C.

Consider `Cc1ccc(Cl)c(NC(=O)C(C)Cl)c1Cl` (stereo not drawn), for which the melting point lay within 149 to 151 °C.

In turn, `O=C(O)CN1CCC(CO)CC1` returned a melting point of 202 to 204 °C.

For `Cc1cc(C(=O)O)c2c(C)nn(C(C)(C)C)c2n1`, the melting point was in the range of 189 to 191 °C.

For `O=C(CCl)NCc1ccccc1F`, the melting point lay in the range of 79 to 81 °C.

Molecule `OCCc1ccc(O)c(-n2nc3ccccc3n2)c1` gave a melting point of 120 to 123 °C.

Molecule `O=C(CCl)c1ccc(N2CCCC2=O)cc1` yielded a melting point of 127 to 129 °C.

Regarding `CCC(C)C(=O)NCC(=O)O` (stereo not drawn), the melting point lay within 101 to 104 °C.

Turning to `COc1ccc(C=CC(=O)O)cc1S(=O)(=O)N1CCOCC1`, the melting point fell in the range of 238 to 240 °C.

Regarding `O=Cc1c(-c2ccccc2)nc2sccn12`, the melting point is 128 to 130 °C.

As to `Nc1cc(-c2cccs2)nn1-c1ccccc1`, the melting point was in the range of 121 to 123 °C.

Regarding `N#CNC1=NCCCCC1`, the melting point was in the range of 79 to 81 °C.

`O=C(O)c1ccc(S(=O)(=O)c2ccccc2)s1` gave a melting point of 192 to 194 °C.

As to `Nc1cccc(OCC(=O)N2CCCC2)c1`, the melting point was 101 to 103 °C.

Turning to `CCN(Cc1ccc2c(c1)OCCO2)C(=O)CCl`, the melting point is 213 to 215 °C.

On to `Cc1ccc(-c2nc(C)c(C(=O)O)s2)o1`, for which the melting point was 215 to 217 °C.

As for `CC1(C)CC(=O)c2ccccc2O1`, the melting point fell in the range of 87 to 89 °C.

Turning to `Fc1ccc(Br)c(-c2nn[nH]n2)c1`, the melting point is 193 to 195 °C.

In the case of `CC(C)(C)c1ccc(C(=O)NC(=O)CCl)cc1`, the melting point was in the range of 120 to 122 °C.

As for `Cc1nn(C)c(N)c1SC#N`, the melting point was in the range of 176 to 178 °C.

Molecule `O=C(O)CC(Br)C(=O)c1ccc(Cl)cc1` (stereo not drawn) showed a melting point of 113 to 117 °C.

In turn, `FC(F)(F)Cc1nnc2ccc(Cl)nn12` showed a melting point of 137 to 139 °C.

`O=C(NC1CC1)c1ccc(Br)cc1F` gave a melting point of 111 to 113 °C.

With `CC(C)Nc1cccnc1`, the melting point fell in the range of 40 to 42 °C.

The molecule `COC(=O)C1CCCc2[nH]ncc21` (stereo not drawn) gave a melting point of 84 to 86 °C.

Molecule `Brc1ccccc1-c1nc2cccnc2[nH]1` yielded a melting point of 196 to 198 °C.

In the case of `O=C(CCl)N1CCc2cc(S(=O)(=O)N3CCCCC3)ccc21`, the melting point lay in the range of 185 to 187 °C.

As for `CCOc1ccc(-c2nc(CCl)co2)cc1`, the melting point was in the range of 102 to 104 °C.

`COc1nc(N2CCNCC2)ncc1Br` returned a melting point of 89 to 91 °C.

`CN(C)C(=O)c1cc(N)ccc1F`: the melting point fell in the range of 104 to 106 °C.

In the case of `Sc1nc(-c2ccccn2)no1`, the melting point is 146 to 148 °C.

The molecule `O=c1ccc(-n2ccnc2)n[nH]1` had a melting point of 251 to 253 °C.

The molecule `O=Cc1c[nH]nc1-c1ccc(Cl)cc1` returned a melting point of 139 to 141 °C.

Turning to `O=C(O)CCc1ccc(S(=O)(=O)N2CCCCCC2)cc1`, the melting point lay within 122 to 124 °C.

`NNC(=O)c1ccc(COc2cccc3cccnc23)cc1`: the melting point was 135 to 137 °C.

As to `O=C1NC(=O)C(c2cc(Br)ccc2F)N1` (stereo not drawn), the melting point is 194 to 196 °C.

Consider `O=C(O)/C=C/c1cc(Cl)ccc1Cl`, for which the melting point was in the range of 192 to 194 °C.

`CC(C)(C)OC(=O)NCC(C(=O)O)c1ccccc1` (stereo not drawn) returned a melting point of 144 to 146 °C.

`NNC(=O)c1ccc(Cl)c(S(N)(=O)=O)c1` displayed a melting point of 212 to 214 °C.

On to `NS(=O)(=O)c1ccc2c(c1)C(=O)NCC2`, for which the melting point lay within 240 to 242 °C.

As for `Cc1ccccc1NC(=O)CC#N`, the melting point fell in the range of 133 to 135 °C.

For the molecule `Cc1nc2cc(F)cc(C(=O)O)c2nc1C`, the melting point was in the range of 226 to 228 °C.

Turning to `Cc1ccccc1-c1nnc(N)[nH]1`, the melting point lay within 219 to 221 °C.

On to `COc1ccc2oc(C(C)=O)c(C)c2c1`, for which the melting point lay in the range of 96 to 98 °C.

`Cc1cccc(N)c1C(=O)N1CCCC1` yielded a melting point of 87 to 89 °C.

For the molecule `O=C(O)c1ccc(S(=O)(=O)C(F)F)cc1`, the melting point lay within 232 to 234 °C.

On to `O=C(O)CCNS(=O)(=O)C(F)(F)F`, for which the melting point lay within 87 to 89 °C.

`COc1cc2nc(C)oc(=O)c2cc1OC` showed a melting point of 187 to 189 °C.
